Assay results taken from ChEMBL document CHEMBL3046521, “Synthesis and antitumor activity of (4-hydroxyphenyl)[5-substituted alkyl/aryl)-2-thioxo-1,3,4-thiadiazol-3-yl]methanone and [(3,4-disubstituted)-1,3-thiazol-2ylidene]-4-hydroxybenzohydrazide” (2011).

Legend:
Format in all cases: functional
[1] = system: OVCAR-3; experiment: Cytotoxicity against Homo sapiens (human) OVCAR3 cells after 48 hr by sulforhodamine B assay; conditions: OVCAR-3, 48 h
[2] = system: Malme-3M; experiment: Cytotoxicity against Homo sapiens (human) MALME-3M cells after 48 hr by sulforhodamine B assay
[3] = system: HCT-116; experiment: Cytotoxicity against Homo sapiens (human) HCT116 cells after 48 hr by sulforhodamine B assay; conditions: HCT-116, 48 h
[4] = Anticancer activity in Homo sapiens (human) NCI-ADR-RES cells assessed as cell growth at 10^-5 M after 48 hr by SRB assay; conditions: read-out: Activity
[5] = system: HL-60(TB); experiment: Cytotoxicity against Homo sapiens (human) HL-60(TB) cells after 48 hr by sulforhodamine B assay; conditions: HL-60, 48 h; for CC50: read-out: pLC50 (the source's name) (converted); for TGI: read-out: pTGI (converted)
[6] = system: HOP-92; experiment: Cytotoxicity against Homo sapiens (human) HOP92 cells after 48 hr by sulforhodamine B assay; conditions: HOP-92, 48 h; for TGI: read-out: pTGI (converted)
[7] = system: PC-3; experiment: Cytotoxicity against Homo sapiens (human) PC3 cells after 48 hr by sulforhodamine B assay; conditions: PC-3, 48 h; for TGI: read-out: pTGI (converted)
[8] = system: SF-295; experiment: Cytotoxicity against Homo sapiens (human) SF295 cells after 48 hr by sulforhodamine B assay; conditions: SF-295, 48 h; for TGI: read-out: pTGI (converted)
[9] = system: CAKI-1; experiment: Cytotoxicity against Homo sapiens (human) Caki1 cells after 48 hr by sulforhodamine B assay; conditions: CAKI-1, 48 h; for TGI: read-out: pTGI (converted)
[10] = system: MCF7; experiment: Cytotoxicity against Homo sapiens (human) MCF7 cells after 48 hr by sulforhodamine B assay; conditions: MCF7, 48 h
[11] = system: HCC 2998; experiment: Anticancer activity in Homo sapiens (human) HCC2998 cells assessed as cell growth at 10^-5 M after 48 hr by SRB assay; conditions: HCC 2998, 48 h, read-out: Activity
[12] = system: MDA-MB-468; experiment: Cytotoxicity against Homo sapiens (human) MDA-MB-468 cells after 48 hr by sulforhodamine B assay; conditions: MDA-MB-468, 48 h
[13] = system: KM12; experiment: Cytotoxicity against Homo sapiens (human) KM12 cells after 48 hr by sulforhodamine B assay; conditions: KM12, 48 h
[14] = system: NCI-H522; experiment: Cytotoxicity against Homo sapiens (human) NCI-H522 cells after 48 hr by sulforhodamine B assay; conditions: NCI-H522, 48 h
[15] = system: MDA-MB-435; experiment: Cytotoxicity against Homo sapiens (human) MDA-MB-435 cells after 48 hr by sulforhodamine B assay; conditions: MDA-MB-435, 48 h
[16] = Cytotoxicity against Homo sapiens (human) NCI-ADR-RES cells after 48 hr by sulforhodamine B assay
[17] = system: CCRF-CEM; experiment: Cytotoxicity against Homo sapiens (human) CCRF-CEM cells after 48 hr by sulforhodamine B assay
[18] = system: HCC 2998; experiment: Cytotoxicity against Homo sapiens (human) HCC2998 cells after 48 hr by sulforhodamine B assay; conditions: HCC 2998, 48 h
[19] = system: CAKI-1; experiment: Anticancer activity in Homo sapiens (human) Caki1 cells assessed as cell growth at 10^-5 M after 48 hr by SRB assay; conditions: CAKI-1, 48 h, read-out: Activity
[20] = system: LOX IMVI; experiment: Anticancer activity in Homo sapiens (human) LOXIMVI cells assessed as cell growth at 10^-5 M after 48 hr by SRB assay; conditions: read-out: Activity

In the case of COc1ccc(-n2c(-c3ccc(Cl)cc3)cs/c2=N\NC(=O)c2ccc(O)cc2)c(OC)c1, the GI50 [1] is reported as 26.9 µM, the LC50 [1] is reported as > 100 µM and the TGI ([1]; read-out: pTGI (converted)) is reported as 83.2 µM. For the same compound, the GI50 [2] was 25.1 µM, the LC50 [2] was > 100 µM and the TGI ([2]; read-out: pTGI (converted)) was 91.2 µM. The GI50 [3] was 27.5 µM, the LC50 [3] was > 100 µM and the TGI ([3]; read-out: pTGI (converted)) was > 100 µM. The growth at 10 µM [4] was -1.18%, the GI50 [5] was 17.8 µM and the CC50 [5] was > 100 µM. For the same compound, the TGI [5] was 81.3 µM, the GI50 [6] was 14.5 µM and the LC50 [6] was > 100 µM. For the same compound, the TGI [6] was 64.6 µM, the GI50 [7] was 18.2 µM and the LC50 [7] was > 100 µM. For the same compound, the TGI [7] was > 100 µM, the GI50 [8] was 27.5 µM and the LC50 [8] was > 100 µM. For the same compound, the TGI [8] was > 100 µM, the GI50 [9] was 22.9 µM and the LC50 [9] was > 100 µM. The TGI [9] was > 100 µM, the GI50 [10] was 25.1 µM and the LC50 [10] was > 100 µM. The TGI ([10]; read-out: pTGI (converted)) was > 100 µM.
In the case of O=C(N/N=c1\scc(-c2ccc(Cl)cc2)n1-c1ccc(Cl)cc1Cl)c1ccc(O)cc1, the growth at 10 µM [11] is reported as -1.56%, the GI50 [12] is reported as 3.89 µM and the LC50 [12] is reported as > 100 µM. The TGI ([12]; read-out: pTGI (converted)) was > 100 µM, the GI50 [13] was 2630 nM and the LC50 [13] was 87.1 µM. For the same compound, the TGI ([13]; read-out: pTGI (converted)) was 8.51 µM, the GI50 [14] was 2570 nM and the LC50 [14] was > 100 µM. The TGI ([14]; read-out: pTGI (converted)) was 20 µM, the GI50 [15] was 2880 nM and the LC50 [15] was > 100 µM. The TGI ([15]; read-out: pTGI (converted)) was 22.9 µM, the GI50 [16] was 2950 nM and the LC50 [16] was > 100 µM. For the same compound, the TGI ([16]; read-out: pTGI (converted)) was 8.32 µM, the GI50 [5] was 0.302 µM and the CC50 [5] was > 100 µM. The TGI [5] was 38 µM, the GI50 [6] was 2.95 µM and the LC50 [6] was 49 µM. For the same compound, the TGI [6] was 7.59 µM, the GI50 [17] was 977 nM and the LC50 [17] was > 100 µM. For the same compound, the TGI ([17]; read-out: pTGI) was > 100 µM, the GI50 [7] was 3.39 µM and the LC50 [7] was > 100 µM. The TGI [7] was > 100 µM, the GI50 [8] was 2.82 µM and the LC50 [8] was > 100 µM. The TGI [8] was 9.77 µM, the GI50 [9] was 3.31 µM and the LC50 [9] was > 100 µM. The TGI [9] was 52.5 µM, the GI50 [18] was 1950 nM and the LC50 [18] was 53.7 µM. For the same compound, the TGI ([18]; read-out: pTGI (converted)) was 5.25 µM.
COc1ccc(-c2nn(C(=O)c3ccc(O)cc3)c(=S)s2)cc1 gave a growth at 10 µM [19] of 68%.
For O=C(c1ccc(O)cc1)n1nc(-c2ccc(O)cc2)sc1=S, the growth at 10 µM [20] was -0.61%.
